Test results reported in paper PMC4901301 (Scientific Reports, 2016).

The compounds below were run on Mtb H37Rv thyX Tet-OFF conditional knockdown mutant.
Type: cell-based, Mycobacterium tuberculosis

Structure (SMILES)	MIC90 shift (increase in potency) upon ThyX depletion
O=C1C=C(Cc2ccc(F)cc2)C(=O)c2ccccc21 [Compound D4]	no shift
COc1ccc(CC2=CC(=O)c3ccccc3C2=O)cc1 [Compound D5]	no shift
CC(=O)N(C1=C(Cl)C(=O)c2ccccc2C1=O)c1cccc(F)c1 [Compound E10]	no shift
O=C1C(Cl)=C(N2CCN(C(=O)c3ccc(F)cc3)CC2)C(=O)c2ccccc21 [Compound F1]	no shift
CCS(=O)(=O)N1CCN(C2=C(Cl)C(=O)c3ccccc3C2=O)CC1 [Compound F2]	~ 2 fold
